Measurements taken from patent US20250160328A1, “COMPOSITIONS AND METHODS FOR REDUCING PARASITIC INFESTATION OF HONEY BEE HIVES” (University of Georgia Research Foundation, Inc., priority 2022, published 2025).
Where “and” joins values, the source holds several entries; their conditions need not be identical. Equal entries are not always repeated.

How the values were obtained:
honey bees [1] = experiment: Adult Honeybee Atoxicity Assays (mortality cages)
Protocol: In all instances, isocaloric sugar feed solutions were used (all honey bees were exposed to feed of equivalent sugar concentration). Both sets of experiments also tested the safety of methanol as a solvent for carrying the chlorantraniliprole. Mortality cages used approximately 20-50 bees per cage replicated across numerous colonies. Each cage was treated with one experimental dose of feed. Each colony donates a cage of bees to each dose in a full factorial experiment in line with tests used for EPA evaluation. Mortality was recorded at 24 hours and 48 hours.
Treatments included chlorantraniliprole concentrations of: 0 (w/methanol), 0 (w/o methanol), 0 (positive dimethoate control), 5, 15, 65, 250 μg/mL.

bumblebee colony = conditions: in vivo; cited from earlier work
adult carabid beetles = conditions: Larson et al., Pest Manag. Sci. 2012; cited from earlier work
adult small hive beetles = experiment: SHB Adult Feed Toxicity and Reproduction Assay; assay type: in vivo, Aethina tumida
Protocol: In-feed testing with adult small hive beetles was done with small hive beetle adults taken from colonies in the field and individuals reared in-lab. Adults from the field and in-lab were given three days to acclimate together in a large container with feed (2 parts pollen supplement; 1 part pollen; 1/2 part honey) in an incubator at 30 C. Simultaneously, 50 mg of Chlorantraniliprole was suspended in 50 mL (1.25 g/mL) glycerol, which was then mixed into 100 g feed, resulting in a concentration of 0.3 mg Chlorantraniliprole per 1 gram feed. A concentration of 100 μg of active ingredient per 1 gram feed was then achieved via dilution with feed and glycerol solution. Using serial dilution, feeds with varying concentrations of active ingredient were mixed, producing feeds with 100 μg, 10 μg, 1 μg, 0 μg (control) active ingredient per 1 g feed. Following the acclimation period, approximately 10 adult small hive beetles (some pots contained more than 10 individuals, but no more than 12) were randomly assigned to 32 pots, with 8 pots randomly assigned to each treatment (100 μg, 10 μg, 1 μg, 0 μg Chlorantraniliprole). Mortality and reproduction were then monitored at 4, 6, 18 and 34 days.

honey bees [2] = conditions: cited from earlier work; for intoxication symptoms to honey bees: under certain test conditions, Minnesota Department of Agriculture website
small hive beetle adults = experiment: SHB Adult Exposure Toxicity Assay (contact); assay type: in vivo, Aethina tumida
Protocol: Testing on chlorantraniliprole contact effectiveness was also conducted on small hive beetle adults. Each plate in which small hive beetles were placed contained an approximately 1 in×1 in square of absorbent shop towel located in the middle of the pot, soaked with solution via pipette. Tests included a methanol-negative (1:1 sugar to water/w) control group with 6 plates of 8 individuals, a methanol-positive (1:1 sugar to water/w solution with methanol then added in to be 1/6 of volume) control group with 7 plates of 8 individuals, a 5 μg treatment group (same as methanol-positive control with 5 μg a.i. added) with 7 plates of 8 individuals, and a 10 μg group (same as methanol-positive control with 10 μg a.i. added) with 7 plates of 8 individuals. Numbers of live beetles were tallied at the end of the test period.

small hive beetle (SHB) = experiment: Field Assay: SHB infestation of pollen supplement patties in hives; assay type: in vivo, Aethina tumida; conditions: approximately 10 μg chlorantraniliprole per 1 g protein feed
Protocol: FIG. 2 is a bar graph of the experimental results from FIG. 1, showing the infestation rates of protein substitute mixed with concentrated solution of chlorantraniliprole, methanol, and glycerol according to trial instructions compared to untreated/control supplementary feed. Instructions achieved approximately 10 μg chlorantraniliprole per 1 g protein feed. Briefly, chlorantraniliprole was dissolved in methanol at a ratio of 1 mg chlorantraniliprole to 1 ml methanol via agitation/stirring. Chlorantraniliprole-methanol solution was cooled to −20° C. and then suspended/mixed into glycerol also cooled to −20° C. and stored between 4° C. and −20° C. to create a shelf-stable product. Product was then mixed into lethal attractant/supplementary feed at a rate of 50 ml formulated product per 1 kg feed or attractant via either mechanical or hand mixing at ambient temperature (200 ml of 80% glycerol/20% methanol was added to 4 kg of protein feed (i.e., 40 ml glycerol and 10 ml methanol per 1 kg protein feed). Treated attractant/feed mixture was then ready for deployment in the honey colony.
Pollen supplement was weighed out into two masses, each approximately 4 kg. To create the control pollen supplement patties, 200 ml of 80% glycerol, 20% methanol by volume solution was added to the pollen supplement mass. […]

[3] = 10 μg/g chlorantraniliprole in feed
[4] = 100 μg/g chlorantraniliprole in feed

SMILES: CO [methanol]
- toxicity of the solvent to honey bees (honey bees [1]; methanol in sugar feed (30% by volume in set one) versus no methanol): No evidence of any toxicity

SMILES: CNC(=O)c1cc(Cl)cc(C)c1NC(=O)c1cc(Br)nn1-c1ncccc1Cl [chlorantraniliprole]
- effects on bumblebee colony growth or mortality (bumblebee colony): no detectable negative effects
- sublethal effect observed in honeybees (honey bees [1]; 250 μg/mL, the very highest dose): Sublethal lethargy
- adult bee mortality at effective control concentrations (honey bees [1]; USDA-standard laboratory trials, FIG. 4): no adult bee mortality
- honey bee mortality in relation to dose (honey bees [1]; set one 1.25-10 μg/mL, set two 5-250 μg/mL in sugar feed, 24 hours and 48 hours): no significant increase in honey bee mortality
- in-field toxicity to adult carabid beetles (adult carabid beetles): no evidence of apparent in-field toxicity
- SHB larvae observed (reproduction) (adult small hive beetles; 1 μg/g chlorantraniliprole in feed): few larvae were observed but subsequently died while still in their first or second instars
- SHB larvae observed (reproduction) (adult small hive beetles; [3]): No evidence of any larvael SHB
- mortality of adult small hive beetles (adult small hive beetles; [3]): Elevated mortality
- SHB larvae observed (reproduction) (adult small hive beetles; [4]): No evidence of any larvael SHB
- time of exposure by which all adult small hive beetles were dead (adult small hive beetles; [4]): ≤ 6 days
- LD50 to Apis mellifera (EPA 2008) (honey bees [2]; EPA registration documentation as a lawn-treatment): > 0.1 mg/bee
- oral toxicity (LD50) for bees, EPA Data (honey bees [2]; oral): exceeds 100 μg a.i. per bee
- intoxication symptoms to honey bees (honey bees [2]): little or no intoxication symptoms
- fold less toxic than clothianidin to Apis mellifera (honey bees [2]; versus a comparable neonicotinoid, clothianidin): more than 2000 ×
- mortality of adult small hive beetles via contact exposure (small hive beetle adults; 5 μg and 10 μg a.i. on soaked shop towel in sugar water/methanol): no evidence of elevated mortality
- survival of adult small hive beetles (small hive beetle adults; 5 μg and 10 μg a.i., contact exposure, end of test period): all adult small hive beetles survived the experiment
- SHB infestation of patties in the five day field trial period (small hive beetle (SHB); 5 days in hives): remained free of SHB infestation
- SHB infestation of supplementary food after two weeks of incubation to hatch eggs (small hive beetle (SHB); 5 days in hives then 14 days at 30 C): remained SHB-infestation free and 10/10

SMILES: Cc1cc(C(F)(C(F)(F)F)C(F)(F)F)ccc1NC(=O)c1cccc(I)c1C(=O)NC(C)(C)CS(C)(=O)=O [flubendiamide]
- intoxication symptoms to honey bees (honey bees [2]): little or no intoxication symptoms
